Experiments:
CB2 receptor [1] = target: CB2 receptor (Homo sapiens, UniProt P34972); assay type: binding
CB2 receptor [2] = details: cited from earlier work
CB2 receptor [3] = details: cited from earlier work; remark: listed apart in the source
[4] = cited from earlier work

Chain of CB2 receptor (Homo sapiens, UniProt P34972) (P34972 whole entry): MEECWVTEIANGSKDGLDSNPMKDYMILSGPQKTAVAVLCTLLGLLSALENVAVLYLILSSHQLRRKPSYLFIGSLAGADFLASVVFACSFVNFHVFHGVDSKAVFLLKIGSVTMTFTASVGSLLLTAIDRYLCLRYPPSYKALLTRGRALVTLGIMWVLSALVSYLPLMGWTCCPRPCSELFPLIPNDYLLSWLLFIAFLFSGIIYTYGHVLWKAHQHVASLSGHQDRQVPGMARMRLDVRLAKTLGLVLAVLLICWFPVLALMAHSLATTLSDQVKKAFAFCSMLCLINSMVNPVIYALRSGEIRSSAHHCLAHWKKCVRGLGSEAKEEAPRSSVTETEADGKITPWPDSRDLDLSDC

Structure (SMILES)	CB1/CB2 (ratio of Ki) (CB2 receptor [1])	selectivity for the CB2 receptor (CB2 receptor [2])	Ki (CB2 receptor [2]; read-out: Ki CB2)	agonism at the CB2 receptor (CB2 receptor [3])	activity in the mouse model of cannabinoid activity [4]
CCCCCCC(C)(C)c1ccc([C@H]2CCC[C@@H](O)C2)c(OC)c1 (relative stereo) [JWH-441, (1R*,3S*)3-[2-Methoxy-4-(1,1-dimethylheptyl)phenyl]cyclohexanol]	>12				
CCCCCCC(C)(C)c1cc(OC)c2c(c1)OC(C)(C)C1CC=C(C)CC21 (stereo not drawn) [1-methoxy-3-(dimethylheptyl)-•^8-THC]		12 fold	57 nM		
CCCC(C)(C)c1ccc2c(c1)OC(C)(C)[C@@H]1CC=C(C)C[C@@H]21 [JWH-133]		200 fold		full agonist	inactive
